Measured values reported in paper PMC5064435, “Inhibition of endoplasmic reticulum glucosidases is required for in vitro and in vivo dengue antiviral activity by the iminosugar UV-4” (Antiviral Research, 2016).
Where a name gives a salt, the structure may show the parent alone.

Legend:
[1] = molecular target: T1, ceramide glucosyltransferase (HL60 glucosyltransferase) (Homo sapiens, UniProt Q16739); test: enzyme inhibition assay, enzyme isolated from HL60 cells; assay type: biochemical; conditions: read-out: IC50 ^a / UV-4B
T1 construct: gene UGCG; native enzyme isolated from human promyelocytic HL60 cells
T1 sequence (Q16739 1-394): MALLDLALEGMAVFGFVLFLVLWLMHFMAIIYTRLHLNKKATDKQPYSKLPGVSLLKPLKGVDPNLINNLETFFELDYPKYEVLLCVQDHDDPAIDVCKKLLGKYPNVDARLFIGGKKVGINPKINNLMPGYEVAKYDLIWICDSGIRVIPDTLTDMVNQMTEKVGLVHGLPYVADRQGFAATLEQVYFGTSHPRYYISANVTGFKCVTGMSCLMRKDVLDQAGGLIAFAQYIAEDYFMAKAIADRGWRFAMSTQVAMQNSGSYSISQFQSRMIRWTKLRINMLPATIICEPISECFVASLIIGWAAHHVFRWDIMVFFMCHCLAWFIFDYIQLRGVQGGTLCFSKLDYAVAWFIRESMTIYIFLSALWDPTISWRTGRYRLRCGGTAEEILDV
Source text: enzyme inhibition assay, enzyme isolated from HL60 cells on ceramide glucosyltransferase (HL60 glucosyltransferase)

[2] = molecular target: T2, α-glucosidase I (human MDMΦs) (Homo sapiens, UniProt Q13724); test: free oligosaccharide (Glc3Man5GlcNAc1) accumulation in human MDMΦs; assay type: cell-based; conditions: […] h treatment of uninfected cells
T2 construct: gene MOGS; endogenous enzyme in primary human monocyte-derived macrophages
T2 sequence (Q13724 1-837): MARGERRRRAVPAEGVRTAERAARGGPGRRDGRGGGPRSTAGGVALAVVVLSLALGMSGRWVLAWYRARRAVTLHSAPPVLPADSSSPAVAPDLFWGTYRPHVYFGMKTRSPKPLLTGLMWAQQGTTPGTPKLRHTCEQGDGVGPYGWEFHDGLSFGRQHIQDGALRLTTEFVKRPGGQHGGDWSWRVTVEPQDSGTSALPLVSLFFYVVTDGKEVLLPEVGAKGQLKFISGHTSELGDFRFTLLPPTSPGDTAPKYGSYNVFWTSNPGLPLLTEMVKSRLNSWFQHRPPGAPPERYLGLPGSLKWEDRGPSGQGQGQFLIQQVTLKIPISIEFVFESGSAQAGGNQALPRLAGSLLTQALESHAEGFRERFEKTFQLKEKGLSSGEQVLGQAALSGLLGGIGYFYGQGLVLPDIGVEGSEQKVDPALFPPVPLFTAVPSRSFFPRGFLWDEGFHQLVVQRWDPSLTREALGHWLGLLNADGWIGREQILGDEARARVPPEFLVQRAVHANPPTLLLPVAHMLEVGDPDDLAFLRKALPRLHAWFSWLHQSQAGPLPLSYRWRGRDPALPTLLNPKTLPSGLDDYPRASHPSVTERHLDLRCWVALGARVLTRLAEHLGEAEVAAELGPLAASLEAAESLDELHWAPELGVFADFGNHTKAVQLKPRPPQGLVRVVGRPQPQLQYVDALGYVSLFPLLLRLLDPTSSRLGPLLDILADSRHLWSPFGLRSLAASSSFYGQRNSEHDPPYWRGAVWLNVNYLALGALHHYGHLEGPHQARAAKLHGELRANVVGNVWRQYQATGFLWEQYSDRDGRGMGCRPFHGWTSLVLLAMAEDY

[3] = molecular target: T3, Mouse ER α-glucosidase I (Mus musculus, UniProt Q80UM7); test: enzyme inhibition assay, purified enzyme; assay type: biochemical; conditions: read-out: IC50 ^a / UV-4B
T3 construct: gene Mogs
T3 sequence (Q80UM7 1-834): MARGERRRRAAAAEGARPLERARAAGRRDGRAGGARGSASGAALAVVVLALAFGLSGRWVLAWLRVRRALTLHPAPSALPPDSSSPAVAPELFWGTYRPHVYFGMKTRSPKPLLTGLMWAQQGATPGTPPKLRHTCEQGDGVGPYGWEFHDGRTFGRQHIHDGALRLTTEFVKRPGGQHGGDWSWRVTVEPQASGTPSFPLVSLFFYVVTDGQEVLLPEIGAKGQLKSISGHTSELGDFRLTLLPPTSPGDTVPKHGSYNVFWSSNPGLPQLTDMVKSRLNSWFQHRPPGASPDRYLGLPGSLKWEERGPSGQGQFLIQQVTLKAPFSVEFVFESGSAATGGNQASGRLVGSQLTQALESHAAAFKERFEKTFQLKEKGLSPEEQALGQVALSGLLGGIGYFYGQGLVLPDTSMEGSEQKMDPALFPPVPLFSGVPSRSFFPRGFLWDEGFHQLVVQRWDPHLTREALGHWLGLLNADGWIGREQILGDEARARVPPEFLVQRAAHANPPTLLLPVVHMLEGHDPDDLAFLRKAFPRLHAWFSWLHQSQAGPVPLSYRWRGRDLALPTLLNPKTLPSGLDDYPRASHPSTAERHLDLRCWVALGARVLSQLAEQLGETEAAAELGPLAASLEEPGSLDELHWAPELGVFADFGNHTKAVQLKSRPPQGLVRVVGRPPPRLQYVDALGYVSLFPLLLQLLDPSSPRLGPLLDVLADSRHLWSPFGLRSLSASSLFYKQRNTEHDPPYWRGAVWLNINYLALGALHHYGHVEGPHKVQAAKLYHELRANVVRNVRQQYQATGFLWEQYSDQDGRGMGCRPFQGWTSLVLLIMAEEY
Source text: enzyme inhibition assay, purified enzyme on Mouse ER α-glucosidase I

[4] = molecular target: T4, Human lysosome (α-glucosidase) (Homo sapiens, UniProt P10253); test: enzyme inhibition assay; assay type: biochemical; conditions: read-out: IC50 ^a / UV-4B
T4 construct: gene GAA
Source text: enzyme inhibition assay on Human lysosome (α-glucosidase)

Q: With `COCCCCCCCCCN1C[C@H](O)[C@@H](O)[C@H](O)[C@H]1CO` [UV-4B, N-(9′-methoxynonyl)-1-deoxynojirimycin hydrochloride] as the molecule, how does the IC50 [1] read?
A: Its IC50 is 390 nM.

Q: What about the “free oligosaccharide (Glc3Man5GlcNAc1) accumulation in human MDMΦs” value [2] of the same molecule?
A: Its value is “UV-4B led to accumulation of FOS representative of inhibition of both α-glucosidases”.

Q: And the IC50 [3]?
A: Its IC50 is 160 nM.

Q: What about the IC50 [4] of the same molecule?
A: The IC50 was 390 nM.
